Here are results for one molecule from publication PMC5320487, “Intrinsic Peroxidase-like Activity of Ficin” (Scientific Reports, 2017).

The subject of this assay is Ficin. Briefly: absorbance at […] nm, steady-state kinetics, Michaelis-Menten fit. As to conditions: peroxidase-like activity; 0.80 mM H2O2, 20 mM phosphate buffer pH 5.0, 35 °C; ping-pong. The assay is classed as biochemical.

In general, Km refers to the substrate concentration at which the rate is half of its maximum. For `Cc1cc(-c2cc(C)c(N)c(C)c2)cc(C)c1N` [TMB], the Km was determined as 0.19 ± 0.012 mM.
